# Read-outs that look alike come from different tables or passages of the source.
# Experiments:
# [1] = test system: opiate receptor (non-selective opiate); experiment: CEREP receptor binding, opiate; details: tested at 10 μM
# From the text: In vitro testing for safety pharmacology and early ADMET (Absorption, Distribution, Metabolism, Excretion, Toxicity) studies of compound 109 were contracted out to CEREP (15318 NE 95th Street, Redmond, Wash., 98052, USA www.cerep.com) under a service agreement and included evaluation of inhibitory binding to a panel of 27 standard receptors and three transporters (See FIG. 60 (Table 31) and FIG. 61 (Table 32)) which included: adenosine receptors (A1 and A2A), adrenergic receptors (alpha 1, alpha 2, beta 1), angiotensin II receptor (AT1), benzodiazapene receptor (BZD), bradykinin receptor (B2), cholecystokinin receptor (CCK1), dopamine receptors (D1, D2S), endothelin receptor (ETA), GABA receptor (GABA), glutamate receptor (NMDA), histamine receptor (H1 central), melanocortin receptor (MC4), muscarinic receptor (M, non-selective), neurokinin receptor (NK1), neuropeptide Y receptor (Y), nicotinic receptor (neuronal, alpha-BGTX-insensitive), opiate receptor (non-selective opiate), orphanin receptor (ORL1), phencyclidine receptor (PCP), serotonin receptor (5-HT), sigma receptor (sigma non-selective), steroid receptor (glucocorticoid receptor, GR), and NE, DA, and 5-HT transporters.
# The specific ligand binding to the receptors is defined as the difference between the total binding and the nonspecific binding determined in the presence of an excess of unlabelled ligand.
# [2] = format: in vitro ADME; details: 6 h
# Procedure: Initially, analytical methods for determination of the compounds had been developed that allowed to carry out all the PK experiments, sec FIG. 29. Here is a brief description of the experiment: (1) plasma spiked with tested compounds and 10 uL of Terfenadine or plasma samples (200 uL) added; (2) ACN (2 mL) added to precipitate protein and spin at 2,500 rpm; (3) evaporate supernatant to dryness; (4) add 200 uL of the diluting solvent: methanol (with 0.1% of trifluoroacetic acid): ammonium acetate (80/20); (5) vortex, spin, and use supernatant; (6) run LC/MS/MS on Sciex API 3000.
# Biostability studies of the compounds in plasma were carried out using concentrations 1 and 15 mg/ml. The compounds were incubated for 1, 2, 3 & 6 hr at 37° C. (Table 18).
# M. marinum = experiment: Spectrum of activity MIC, MOTT, agar proportion method; format: cell-based; details: Mycobacterium marinum; three strains
compound,measurement,setting,value
"CC(C)=CCC/C(C)=C/CNCCNC1C2CC3CC(C2)CC1C3 (stereo not drawn) [Compound 109, N-Geranyl-N′-(2-adamanthyl)ethane-1,2-diamine]",inhibition of control specific binding,[1],58%
same,Biostability in plasma (% ↓),[2]; dog,40% ↓
same,Biostability in plasma (% ↓),[2]; human,30% ↓
same,Biostability in plasma (% ↓),[2]; mouse,stable
same,Biostability in plasma (% ↓),[2]; rat,stable
same,MIC,M. marinum,8 µg/mL
